Source: patent US12091402B2 (Avilar Therapeutics, Inc., priority 2021, dated 2024)
Where a SMILES comes first, the peptide text is derived from it. Bridges are numbered along the chain shown (N, C = ends). The star is where a group is joined. X5 = O=C(CCCCCn1cc(CCCC(=O)*)nn1)NC(COCc1cn(CCOCCOCCOCCOC[C@H]2OC[C@H](Nc3nccc(C(F)(F)F)n3)[C@@H](O)[C@H]2O)nn1)COCc1cn(CCOCCOCCOCCOC[C@H]2OC[C@H](Nc3nccc(C(F)(F)F)n3)[C@@H](O)[C@H]2O)nn1; PEG4 = NCCOCCOCCOCCOCCC(=O)O

What follows are compounds tested against T1, ASGPR (Homo sapiens, UniProt P07306) (assay: Affinity to ASGPR by surface plasmon resonance (SPR)).
T1 sequence (P07306 1-291): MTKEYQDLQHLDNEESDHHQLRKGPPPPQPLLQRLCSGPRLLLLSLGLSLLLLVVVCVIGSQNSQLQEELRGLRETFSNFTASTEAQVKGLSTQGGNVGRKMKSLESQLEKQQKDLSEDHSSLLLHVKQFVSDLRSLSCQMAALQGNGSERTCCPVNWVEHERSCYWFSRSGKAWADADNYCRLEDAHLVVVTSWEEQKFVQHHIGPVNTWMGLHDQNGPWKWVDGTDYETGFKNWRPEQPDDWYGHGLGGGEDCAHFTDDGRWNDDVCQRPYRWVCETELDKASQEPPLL
Description: Biotinylated ASGPR (20 μg/ml) was immobilized on SA sensor chips (GE Healthcare) at flow rate of 5 μl/min for 90 sec reaching an immobilization level ranging from 500-3000 resonance units (RU). The running buffer was 50 mM HEPES, pH7.5, 150 mM NaCl, 50 mM CaCl2), 0.01% P20, 3% DMSO. The concentration of compounds vary from 2 mM to 5 nM depending on Kd values. The compounds are diluted 2 or 3-fold with 8 concentration points. Solutions containing serially diluted compounds are injected at a flow rate of 40 μL/min for 150-300 sec followed by a 90-300 sec dissociation phase for each concentration. The surface was regenerated using 50 mM HEPES, pH 7.5, 150 mM NaCl, 5 mM EDTA, 0.01% P20, 3% DMSO.
Data was processed using the analysis software in Biacore 8K to perform background subtraction, double referencing, and solvent correction. Values of affinity expressed as the dissociation constants (Kd) were determined by fitting the steady state binding responses (RUs) as a function of the concentration ([Compound]) using the following equation: RU=RUmax/(KD+[Compound]), where RU max is the calculated maximal response. Where appropriate double-referenced data were fit to using a 1:1 binding model for kinetic analysis.
With `CC(C)C[C@@H]1NC(=O)[C@@H](NC(=O)[C@@H](NC(=O)[C@H](CCC(N)=O)NC(=O)[C@H](Cc2cnc[nH]2)NC(=O)CCOCCOCCOCCOCCNC(=O)CCCc2cn(CCCCCC(=O)NC(COCc3cn(CCOCCOCCOCCOC[C@H]4OC[C@H](Nc5nccc(C(F)(F)F)n5)[C@@H](O)[C@H]4O)nn3)COCc3cn(CCOCCOCCOCCOC[C@H]4OC[C@H](Nc5nccc(C(F)(F)F)n5)[C@@H](O)[C@H]4O)nn3)nn2)C(C)C)CSSC[C@@H](C(=O)N[C@@H](Cc2ccccc2)C(=O)N[C@@H](CO)C(=O)N[C@H](C(N)=O)[C@@H](C)O)NC(=O)[C@H](C(C)C)NC(=O)[C@@H]2CCCN2C(=O)[C@H](CCCNC(=N)N)NC(=O)CNC(=O)[C@H](CCCNC(=N)N)NC(=O)[C@H](Cc2ccc(O)cc2)NC(=O)[C@H](CO)NC1=O` [Compound 57] ({X5-PEG4}-HQVCLSYRGRPVCFST-NH2; disulfide 4-13) the Kd was < 100 nM. With `N#Cc1nc(N[C@H]2CO[C@H](CO)[C@H](O)[C@@H]2O)cc(C(F)(F)F)n1` [A79, 4-(((3S,4R,5R,6R)-4,5-dihydroxy-6-(hydroxymethyl)tetrahydro-2H-pyran-3-yl)amino)-6-(trifluoromethyl)pyrimidine-2-carbonitrile] the Kd was > 20000 nM. `O=C(O)COCCOCC(=O)NC(COCCC(=O)NCCOCCOCCOCCOC[C@H]1OC[C@H](Nc2nccc(C(F)(F)F)n2)[C@@H](O)[C@H]1O)COCCC(=O)NCCOCCOCCOCCOC[C@H]1OC[C@H](Nc2nccc(C(F)(F)F)n2)[C@@H](O)[C@H]1O` [A24, 1-((2R,3R,4R,5S)-3,4-dihydroxy-5-((4-(trifluoromethyl)pyrimidin-2-yl)amino)tetrahydro-2H-pyran-2-yl)-20-(1-((2R,3R,4R,5S)-3,4-dihydroxy-5-((4-(trifluoromethyl)pyrimidin-2-yl)amino)tetrahydro-2H-pyran-2-yl)-15-oxo-2,5,8,11,18-pentaoxa-14-azanonadecan-19-yl)-15,22-dioxo-2,5,8,11,18,24,27-heptaoxa-14,21-diazanonacosan-29-oic acid] was tested, and the Kd was < 100 nM. With `NC(=O)c1sc(N[C@H]2CO[C@H](CO)[C@H](O)[C@@H]2O)nc1C(F)(F)F` [A54, 2-(((3S,4R,5R,6R)-4,5-dihydroxy-6-(hydroxymethyl)tetrahydro-2H-pyran-3-yl)amino)-4-(trifluoromethyl)thiazole-5-carboxamide] the Kd was > 20000 nM. `O[C@@H]1[C@H](O)[C@@H](Nc2nccc(C(F)(F)F)n2)CO[C@@H]1Cn1ccnn1` [A67, (2R,3R,4R,5S)-2-((1H-1,2,3-triazol-1-yl)methyl)-5-((4-(trifluoromethyl)pyrimidin-2-yl)amino)tetrahydro-2H-pyran-3,4-diol] was tested, and the Kd was < 1000 nM. For `[N-]=[N+]=NC[C@H]1OC[C@H](Nc2cncc(C(F)(F)F)n2)[C@@H](O)[C@H]1O` [A86, (2R,3R,4R,5S)-2-(azidomethyl)-5-((6-(trifluoromethyl)pyrazin-2-yl)amino)tetrahydro-2H-pyran-3,4-diol], the Kd was < 1000 nM. `OC[C@@]12CO[C@@H](O1)[C@H](Nc1nccc(C(F)(F)F)c1F)[C@@H](O)[C@H]2O` [A42, (1S,2R,3R,4R,5S)-4-[[3-fluoro-4-(trifluoromethyl)-2-pyridyl]amino]-1-(hydroxymethyl)-6,8-dioxabicyclo[3.2.1]octane-2,3-diol] showed a Kd of 10000 to 100000 nM. Compound `C=CCO[C@H]1O[C@H](Cn2cc(-c3cccc(OC)c3)nn2)[C@H](O)[C@H](O)[C@H]1Nc1nccc(C(F)(F)F)n1` [A58, (2R,3R,4R,5R,6S)-6-(allyloxy)-2-((4-(3-methoxyphenyl)-1H-1,2,3-triazol-1-yl)methyl)-5-((4-(trifluoromethyl)pyrimidin-2-yl)amino)tetrahydro-2H-pyran-3,4-diol] has a Kd of 1000 to 10000 nM. `NC(COCCC(=O)NCCOCCOCCOCCOC[C@H]1OC[C@H](Nc2cncc(C(F)(F)F)n2)[C@@H](O)[C@H]1O)COCCC(=O)NCCOCCOCCOCCOC[C@H]1OC[C@H](Nc2cncc(C(F)(F)F)n2)[C@@H](O)[C@H]1O` [A131] was tested, and the Kd was < 100 nM.
